Experimental data published in article PMC4721142, “Randomized controlled studies on the efficacy of antiarthritic agents in inhibiting cartilage degeneration and pain associated with progression of osteoarthritis in the rat” (Arthritis Research & Therapy, 2016).
Read-outs that look alike come from different tables or passages of the source.

Assays:
NF-κB = experiment: TNF-α-stimulated NF-κB dual luciferase reporter assay in HeLa cells; type: cell-based
Experimental: NF-κB activity was assessed using a previously described dual plasmid reporter system. HeLa cells were transfected with NF-κB luciferase (Stratagene Products Division, Agilent Technologies, La Jolla, CA, USA) and pRLuc-N3 (PerkinElmer, Waltham, MA, USA) at an 8:1 ratio, respectively, in triplicate. […] NF-κB activity was measured 5 h later with a Dual-Glo Luciferase Assay (Promega, Madison, WI, USA) and an Omni plate reader (BMG Labtech, Cary, NC, USA). The ratio of firefly luciferase luminescence (NF-κB reporter) to Renilla luciferase luminescence (control) was normalized for the number of viable transfected cells. Data are reported as a ratio of activity of viable treated cells over the activity of cells not exposed to TNF-α or drug (fold stimulation above basal untreated levels of activity). The viability of HeLa cells with and without drug was also measured using a CellTiter-Glo luminescent viability assay (Promega). […]
NF-κB activity was assessed in HeLa cells that were transiently transfected with two reporter constructs as described in the manuscript. Agents were tested for their ability to block TNF- […]
Expression of the luciferase from the Renilla construct was used as a measure of viability, which was confirmed with a cytotoxicity assay (see later section).

RAW 264.7 cells = experiment: RANKL-mediated osteoclastogenesis / matrix resorption (Osteologic) assay; type: cell-based, murine; details: for minimal effective concentration: Mus musculus, RAW264.7, 168 h, read-out: Lowest inhibitory concentration, matrix resorption
Experimental: RAW 264.7 cells (American Type Culture Collection [ATCC], Manassas, VA, USA), a murine monocytic cell line that differentiates in the presence of RANKL, was used for measurements of osteoclastogenesis and osteoclast activity. Cells were amplified on nonadherent culture substratum in high-glucose Dulbecco’s modified Eagle’s medium (DMEM) containing 10 % fetal bovine serum (FBS) and penicillin-streptomycin in a 37 °C, 5 % CO2, humidified incubator and were passaged by manual dissociation. […] Plates were subsequently rinsed, bleached, dried, and analyzed for matrix degradation using a Nikon COOLSCOPE (Nikon Instruments, Melville, NY, USA). Matrix resorption was quantified using EclipseNet (Nikon Instruments)/Visiopharm (Visiopharm, Hørsholm, Denmark) software (see Additional file 1).
In Vitro Osteoclastogenesis
Osteoclastogenic activity was measured using BD osteologic plates and quantitation of the degree of bone matrix digestion on the plate surface. Images from the BD Osteologic assay used to […]
left pane depicts an example of a control well after removal of cells from matrix. Pseudocoloring of matrix (blue) and pits (green) is shown in the far right pane. A transparent overlay of the two images is shown in the center.
Figure 5 - Measurement of drug effects on osteoclastogenesis and osteoclast activity.
Comparisons were made between RANKL treated control wells and wells treated with both RANKL and […]
Agents were initially tested either during differentiation or post differentiation in the bone assay […]
(e.g., Figure 2, Sulfazalazine). […]
indicated (*/**: p < 0.05/0.01, unpaired t-test versus RANKL control). […]

MMP-13 = MMP-13 ELISA on supernatants of TNF-α-treated chondrogenic pellets; type: cell-based, human; details: for Concentration inhibiting MMP-13: > = failed to inhibit up to highest concentration tested
[1] = Comparison of in vitro screens: overlapping effective and nontoxic range; details: for Overlapping effective and nontoxic range: inhibits with minimal or no toxicity to synovium or cartilage, overlapping range if effective in more than one assay;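 on all read-outs here: compares non-toxic ranges in synovial cells and chondrocytes with effective ranges against NFkB, MMP-13 and osteoclasts, giving their overlap as the predicted efficacy range in uM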
[2] = tested on: Normal human articular chondrocytes; experiment: Cytotoxicity to chondrogenic pellets (CellTiter-Blue)
Experimental: Differentiated chondrogenic pellets were used both to test the ability of drugs to block MMP-13 activity and to test for drug toxicity. […] Supernatants were collected and analyzed for MMP-13 using an enzyme-linked immunosorbent assay (GE Healthcare Life Sciences, Little Chalfont, UK). Cytotoxicity to pellets was assessed using CellTiter-Blue (Promega).

SW982 = experiment: Synovial toxicity (CellTiter-Glo), with or without TNF-α
Experimental: Viability was measured with the CellTiter-Glo luminescent viability assay (Promega). […] To more accurately predict the effects of the drugs on osteoarthritic synovium, cells were tested with or without TNF-α (20 ng/ml; BioSource).
In Vitro Toxicity Testing with a Synovial Cell Line
Compounds were tested for synovial toxicity using SW982 cells alone or in the presence of TNF as

HeLa cells = experiment: HeLa cell viability (CellTiter-Glo)
Experimental: NF-κB activity was assessed using a previously described dual plasmid reporter system. HeLa cells were transfected with NF-κB luciferase (Stratagene Products Division, Agilent Technologies, La Jolla, CA, USA) and pRLuc-N3 (PerkinElmer, Waltham, MA, USA) at an 8:1 ratio, respectively, in triplicate. […] NF-κB activity was measured 5 h later with a Dual-Glo Luciferase Assay (Promega, Madison, WI, USA) and an Omni plate reader (BMG Labtech, Cary, NC, USA). The ratio of firefly luciferase luminescence (NF-κB reporter) to Renilla luciferase luminescence (control) was normalized for the number of viable transfected cells. Data are reported as a ratio of activity of viable treated cells over the activity of cells not exposed to TNF-α or drug (fold stimulation above basal untreated levels of activity). The viability of HeLa cells with and without drug was also measured using a CellTiter-Glo luminescent viability assay (Promega).
In Vitro Hela Cell Drug Toxicity Testing
Potential drug toxicity was measured using a CTG assay and HeLa cells (Promega). Drugs not tested in
this assay were tested in either of the in vitro toxicity assays already presented (synovial or chondrocyte
Table 3- Drug toxicity measured using a CTG assay and HeLa cells.

[3] = published half-life; cited from earlier work

Compound	Effective range against Osteoclasts (RAW 264.7 cells)	Non-toxic & predicted range of efficacy [1]	Overlapping effective and nontoxic range [1]	Non-toxic range (Chondrocyte) [2]	Non-toxic range (Synovial) (SW982)	t 1/2 [3]	other results
Nc1cc(-c2ccncc2)c[nH]c1=O [Amrinone]	Not effective	≥ 80 µM	80 µM	1.25 to 80 µM	1.25 to 40 µM	–	Effective range against NFkB (NF-κB): None; MMP-13, effective concentration (MMP-13; number printed in the class column): 80
CC[C@@H]1/C=C(\C)C[C@H](C)C[C@H](OC)[C@H]2O[C@@](O)(C(=O)C(=O)N3CCCC[C@H]3C(=O)O[C@H](/C(C)=C/[C@@H]3CC[C@@H](O)[C@H](OC)C3)[C@H](C)[C@@H](O)CC1=O)[C@H](C)C[C@@H]2OC [Ascomycin]	–	1.25 to 40 µM	1.25 to 40 µM	0.625 to 40 µM	625000 to 4e+07 µM	–	minimal effective concentration (RAW 264.7 cells): 0.01 µM; Effective range against MMP-13 (MMP-13): Not effective; Concentration inhibiting MMP-13 (MMP-13): > 40 µM
Cc1ccc(S(=O)(=O)/C=C/C#N)cc1 [BAY-117082, BAY-11-7082]	≥ 3 µM	None	6 to 192 µM	0.18 to 1.5 µM	3 to 6 µM	–	Effective against NF κβ (p<0.05) (NF-κB): 12 to 96 µM; Effective range against NFkB (NF-κB): 12 to 96 µM; Effective range against MMP-13 (MMP-13): ≥ 0.75 µM; Non-toxic concentrations (HeLa cells): 6 to 96 µM; Concentration with notable toxicity (SW982): 12 µM
CC(=O)Oc1cccc2c1C(=O)c1c(OC(C)=O)cc(C(=O)O)cc1C2=O [Diacerein]	–	None	Toxic to chondrocytes	All toxic	1.5 to 54.3 µM	–	Non-toxic concentrations (HeLa cells; (TNF), i.e. without TNF): 0 to 1.375e+07 µM; Non-toxic concentrations (HeLa cells; +TNF): 0 to 2.275e+07 µM; Toxic concentrations (p<0.05) (HeLa cells; with TNF): 50 to 110 M
CNC(=O)[C@H](Cc1c[nH]c2ccccc12)NC(=O)[C@@H](CC(=O)NO)CC(C)C [GM6001]	Not effective	–	–	0.4 to 25 µM	0.33 to 25 µM	–	MMP-13, effective concentration (MMP-13): 25
O=C(c1ccccc1)c1ccc2n1CCC2C(=O)O (centres unmarked) [Keterolac]	Not effective	≥ 12.5 µM	–	3.17 to 200 µM	0.625 to 40 µM	–	–
CC[C@@H]1/C=C(\C)C[C@H](C)C[C@H](OC)[C@H]2O[C@@](O)(C(=O)C(=O)N3CCCC[C@H]3C(=O)O[C@H](/C(C)=C/[C@@H]3CC[C@H](Cl)[C@H](OC)C3)[C@H](C)[C@@H](O)CC1=O)[C@H](C)C[C@@H]2OC [Pimecrolimus]	–	2.5 to 40 µM	2.5 to 20 µM	0.625 to 40 µM	0.625 to 40 µM	Ascomycin macrolactam derivative Like tacrolimus, a calcineurin inhibitor that inhibits release of inflammatory cytokines [97] t 1/2 = 30–100 h	minimal effective concentration (RAW 264.7 cells): 0.01 µM; Effective range against MMP-13 (MMP-13): Not effective; Concentration inhibiting MMP-13 (MMP-13): > 40 µM
Oc1ccc(/C=C/c2cc(O)cc(O)c2)cc1 [Resveratrol]	–	–	–	3.12 to 200 µM	3.12 to 100 µM	Suppresses IL-1β signaling and IL-1β-stimulated apoptosis in osteoarthritis [98] A natural inhibitor of NF-κB [99] t 1/2 = 1–3 h	Effective range against NFkB (NF-κB): Not effective; Lowest inhibitory concentration, matrix resorption (RAW 264.7 cells): 6.25 µM
O=C(O)c1cc(O)c2c(c1)C(=O)c1cccc(O)c1C2=O [Rhein]	Not effective	40 µM	–	0.625 to 40 µM	625000 to 4e+07 µM	Anthraquinone-active metabolite of diacerein Reduces proliferation of chondrocytes and synoviocytes; inhibits NF-κB activation in vitro [101] t 1/2 = 4.3 h	Effective against NF κβ (p<0.05) (NF-κB): Only at toxic; Non-toxic concentrations (HeLa cells): 2.5 to 20 µM
O=C(O)c1cc(/N=N/c2ccc(S(=O)(=O)Nc3ccccn3)cc2)ccc1O [Sulfasalazine]	–	50 to 400 µM	150 to 1600 µM	12.5 to 800 µM	12.5 to 400 µM	NSAID t 1/2 = 5 – 10 h	–
CC1=C(CC(=O)O)c2cc(F)ccc2/C1=C\c1ccc([S+](C)[O-])cc1 (centres unmarked) [Sulindac]	–	8.8 to 280 µM	280 µM	4.35 to 280 µM	4.4 to 280 µM	NSAID t 1/2 = 7.8 h	Non-toxic concentrations (HeLa cells): 8.75 to 70 µM
CC1(C)O[C@@H]2C[C@H]3[C@@H]4CCC5=CC(=O)C=C[C@]5(C)[C@@]4(F)[C@@H](O)C[C@]3(C)[C@]2(C(=O)CO)O1 [Triamcinolone acetonide]	–	31.25 to 500 µM	250 to 500 µM	–	0.7 to 250 µM	Steroid t 1/2 = 88 min	Lowest inhibitory concentration, matrix resorption (RAW 264.7 cells): 250 µM
COc1ccc(CCN(C)CCCC(C#N)(c2ccc(OC)c(OC)c2)C(C)C)cc1OC (centres unmarked) [Verapamil]	Not effective	–	–	–	–	–	–
Epigallocatechin-3-gallate [EGCG]	None?	5.5 to 44 µM	5.5 to 44 µM	690000 to 4.4e+07 µM	690000 to 4.4e+07 µM	–	Effective range against NFkB (NF-κB): 5.5 to 88 µM; Effective range against MMP-13 (MMP-13): ≥ 5.5 µM
